Consider 8 molecules from PubChem BioAssay (NCI).

“And” between values parts separate entries of the source, which are not always exact repeats. Equal entries are not always repeated.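 All cell lines were grown in 96-well plates and treated with compound for 48 hours. GI50 is the concentration that inhibits growth by half. TGI is the concentration that stops growth completely.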

The GI50 is the concentration at which growth is held to half of that of the control. One may read the TGI as the concentration at which net growth stops.

Test systems include SK-OV-3 ovarian; HCT-15 colon; HOP-62 NSCLC; UACC-257 melanoma; NCI/ADR-RES ovarian; HOP-92 NSCLC; SNB-19 CNS; NCI-H460 lung; K-562 leukemia; PC-3 prostate.
Common to all, as to assay: DTP human tumour cell line panel, 48 h

With `COc1cccc(C2=NN(C(C)=O)C(c3cc(OC)c(OC)c(OC)c3)C2)c1` (centres undefined), the GI50 with SK-OV-3 ovarian is 3.04 µM; in the assay with HCT-15 colon, 1.42 µM; in the assay on HOP-62 NSCLC it was 0.827 µM; with UACC-257 melanoma it was above 100 µM; in the assay on NCI/ADR-RES ovarian, 1.9 µM; in the assay with HOP-92 NSCLC, 14.9 µM. Besides, the GI50 in the assay on SNB-19 CNS was 3.18 µM; with NCI-H460 lung, 2.14 µM; in the assay on K-562 leukemia, 0.9 µM; with PC-3 prostate, 1.71 µM. For the same molecule, the concentration for total growth inhibition (TGI) in the assay with SK-OV-3 ovarian was above 47.7 µM; in the assay on HCT-15 colon, above 100 µM; in the assay with UACC-257 melanoma, above 100 µM; with NCI/ADR-RES ovarian, above 20.1 µM; with HOP-92 NSCLC, above 100 µM; in the assay on SNB-19 CNS, above 100 µM. For the same molecule, the TGI in the assay with NCI-H460 lung was 11.2 µM; in the assay on K-562 leukemia, above 84.5 µM; with PC-3 prostate, above 100 µM.

On to `CCN(CC)CCC(CNc1c2ccc([N+](=O)[O-])cc2nc2cc(OC)c(OC)cc12)c1ccccc1` (centres undefined), for which the GI50 in the assay with SK-OV-3 ovarian was 0.844 µM and 0.695 µM; in the assay with HCT-15 colon it was 0.738 µM and 1.03 µM; in the assay on HOP-62 NSCLC it was 0.284 µM and 0.226 µM; in the assay with UACC-257 melanoma, 0.41 µM and 0.365 µM; with NCI/ADR-RES ovarian, 1.53 µM and 1.72 µM; in the assay on HOP-92 NSCLC, 0.258 µM and 0.0809 µM. Moreover, the GI50 with SNB-19 CNS was 0.214 µM and 0.177 µM; in the assay with NCI-H460 lung, 0.118 µM and 0.0525 µM; with K-562 leukemia, 0.142 µM and 0.146 µM; with PC-3 prostate it was 0.305 µM and 0.209 µM. Also, the TGI in the assay on SK-OV-3 ovarian is 2.17 µM and 2.55 µM; in the assay with HCT-15 colon, 2.14 µM and 3.1 µM; in the assay with HOP-62 NSCLC, 1.23 µM and 1.1 µM; in the assay on UACC-257 melanoma it was 1.43 µM and 1.3 µM; in the assay on NCI/ADR-RES ovarian, 5.1 µM and 5.07 µM; with HOP-92 NSCLC, 0.85 µM and 0.404 µM. For the same molecule, the TGI in the assay with SNB-19 CNS was 1.24 µM; with NCI-H460 lung, 1.05 µM and 0.631 µM; in the assay on K-562 leukemia it was 1.25 µM and 3.85 µM; in the assay with PC-3 prostate, 1.01 µM and 0.98 µM.

With `CNC(=O)c1cc(Oc2ccc3nc(NC(=O)c4cc(C(F)(F)F)cc(C(F)(F)F)c4)sc3c2)ccn1`, the GI50 in the assay with SK-OV-3 ovarian was 2.52 µM; in the assay with HCT-15 colon, 3.97 µM; with HOP-62 NSCLC, 3.36 µM; in the assay on UACC-257 melanoma, 2.89 µM; in the assay on NCI/ADR-RES ovarian, 3.67 µM; in the assay on HOP-92 NSCLC it was 1.68 µM. The GI50 was 3.76 µM in the assay on SNB-19 CNS, 3.83 µM with NCI-H460 lung, 3.53 µM in the assay with K-562 leukemia and 2.53 µM with PC-3 prostate. Also, the TGI in the assay with SK-OV-3 ovarian came to 7.98 µM; in the assay with HCT-15 colon, 25.1 µM; with HOP-62 NSCLC it was 10.8 µM; in the assay on UACC-257 melanoma, 8.12 µM; with NCI/ADR-RES ovarian it was 19.1 µM; with HOP-92 NSCLC it was 7.21 µM. Moreover, the TGI with SNB-19 CNS was 22.8 µM; in the assay with NCI-H460 lung, 14.6 µM; with K-562 leukemia, above 100 µM; in the assay on PC-3 prostate, 12.8 µM.

As for `Nc1nn(C(=O)Nc2ccc(Cc3ccccc3)cc2)c2ccc(Cl)cc12`, the GI50 in the assay on SK-OV-3 ovarian was 17.9 µM; in the assay with HCT-15 colon, 0.0821 µM; in the assay on HOP-62 NSCLC, 1.33 µM; in the assay with UACC-257 melanoma, 10.1 µM; in the assay with NCI/ADR-RES ovarian, 7.89 µM; in the assay on HOP-92 NSCLC, 13.4 µM. Further, the GI50 with SNB-19 CNS is 18.1 µM; in the assay on NCI-H460 lung, 0.0658 µM; in the assay on K-562 leukemia, 0.0343 µM; in the assay with PC-3 prostate it was 2.87 µM. Also, the TGI in the assay on SK-OV-3 ovarian is 52 µM; in the assay with HCT-15 colon it was above 100 µM; in the assay with HOP-62 NSCLC it was 14.8 µM; in the assay with UACC-257 melanoma it was above 100 µM; in the assay on NCI/ADR-RES ovarian it was 51.6 µM; with HOP-92 NSCLC, 42 µM. For the same molecule, the TGI in the assay with SNB-19 CNS is 51.7 µM; in the assay on NCI-H460 lung it was 15.3 µM; in the assay with K-562 leukemia, 16.9 µM; in the assay on PC-3 prostate, above 66.5 µM.

Take `O=[N+]([O-])c1ccccc1S(=O)(=O)c1ccccc1[N+](=O)[O-]`: the TGI with SK-OV-3 ovarian is above 100 µM; with HCT-15 colon, above 100 µM; in the assay on HOP-62 NSCLC, 87 µM; in the assay with UACC-257 melanoma, above 100 µM; with NCI/ADR-RES ovarian it was above 100 µM; with HOP-92 NSCLC, 91.4 µM. Besides, the TGI with SNB-19 CNS was above 97.7 µM; with NCI-H460 lung it was above 100 µM; with K-562 leukemia it was above 100 µM; with PC-3 prostate it was above 100 µM.

For `C[C@@]12CCC[C@@](C)(C(=O)O)C1CC[C@]13C=C(CO)[C@](O)(CCC12)C3` (some centres undefined), the GI50 in the assay with SK-OV-3 ovarian, in the assay with HCT-15 colon, with HOP-62 NSCLC, in the assay on UACC-257 melanoma, in the assay on NCI/ADR-RES ovarian and in the assay with HOP-92 NSCLC was above 100 µM throughout. Moreover, the GI50 with SNB-19 CNS, in the assay with NCI-H460 lung, in the assay on K-562 leukemia and with PC-3 prostate was above 100 µM throughout. Moreover, the TGI with SK-OV-3 ovarian, in the assay with HCT-15 colon, in the assay on HOP-62 NSCLC, in the assay on UACC-257 melanoma, in the assay with NCI/ADR-RES ovarian and in the assay with HOP-92 NSCLC was above 100 µM each time. Besides, the TGI in the assay on SNB-19 CNS, in the assay with NCI-H460 lung, with K-562 leukemia and in the assay on PC-3 prostate was above 100 µM throughout.

With `O=C(/C=C/c1ccccc1Cl)c1ccc(O)cc1`, the GI50 in the assay with SK-OV-3 ovarian is 12.1 µM; in the assay with HCT-15 colon, 2.48 µM; with HOP-62 NSCLC it was 20.4 µM; in the assay on UACC-257 melanoma, 9.79 µM; in the assay on NCI/ADR-RES ovarian, 16.4 µM; with HOP-92 NSCLC, 6.75 µM. Further, the GI50 in the assay on SNB-19 CNS is 6.95 µM; in the assay on NCI-H460 lung, 4.4 µM; in the assay with K-562 leukemia, 3.12 µM; with PC-3 prostate, 5.65 µM. Moreover, the TGI in the assay on SK-OV-3 ovarian is 25.9 µM; with HCT-15 colon, 11.1 µM; with HOP-62 NSCLC it was 37.3 µM; in the assay with UACC-257 melanoma it was 22.5 µM; with NCI/ADR-RES ovarian it was above 70.6 µM; in the assay on HOP-92 NSCLC it was 23.7 µM. For the same molecule, the TGI with SNB-19 CNS was 19.6 µM; in the assay on NCI-H460 lung it was 16.8 µM; in the assay with K-562 leukemia, above 100 µM; with PC-3 prostate it was 26.5 µM.

`COc1ccc(Nc2nc(NCc3ccccc3)c3ccccc3n2)cc1`: the GI50 is 10.4 µM in the assay with SK-OV-3 ovarian; 3.69 µM in the assay on HCT-15 colon; 10.1 µM with HOP-62 NSCLC; 3.82 µM in the assay with UACC-257 melanoma; 4.14 µM in the assay with NCI/ADR-RES ovarian; 2.59 µM in the assay on HOP-92 NSCLC. Moreover, the GI50 is 9.72 µM in the assay on SNB-19 CNS, 3.34 µM with NCI-H460 lung, 2.01 µM in the assay on K-562 leukemia and 2.87 µM with PC-3 prostate. Also, the TGI in the assay with SK-OV-3 ovarian was 22.1 µM; with HCT-15 colon, 19 µM; with HOP-62 NSCLC, 22.4 µM; with UACC-257 melanoma, 13.8 µM; in the assay with NCI/ADR-RES ovarian, 23.1 µM; in the assay on HOP-92 NSCLC, 12.6 µM. For the same molecule, the TGI in the assay with SNB-19 CNS turned out to be 24.1 µM; with NCI-H460 lung, 12.6 µM; with K-562 leukemia, 5.71 µM; in the assay on PC-3 prostate it was 12.6 µM.
